Reference: PubChem BioAssay AID2060627 (Molecular Pharmacology Branch, DTP, NCI, 2025)
“And” between values parts separate entries of the source, which are not always exact repeats. Equal values may be shown once. Values belong to the compound of their own block, whether it stands above or below them.

Test system: 156681-154-R-J1-PDC complex spheroid viability
Assay: Anticancer human tumor 156681-154-R-J1-PDC patient-derived melanoma cell line growth inhibition [CLK]
Conditions: for viability, T/C: stronger effect = lower value
Summary of the method: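 Multi-cell-type spheroids combined patient-derived tumor cells with HUVEC endothelial cells and human mesenchymal stem cells. Paired agents were dosed in half-log steps down from about clinical Cmax, or from 10 microM where Cmax was unknown.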

[1] = curve of first compound, second compound 0.0316 µM
[2] = curve of first compound, second compound 0.1 µM
[3] = curve of first compound, second compound 0.316 µM
[4] = curve of first compound, second compound 1 µM
[5] = curve of first compound, second compound 3.16 µM
[6] = curve of first compound, second compound 10 µM
[7] = second compound 0.0316 µM, first compound 0.0316 µM
[8] = second compound 0.0316 µM, first compound 0.1 µM
[9] = second compound 0.0316 µM, first compound 0.316 µM
[10] = second compound 0.0316 µM, first compound 1 µM
[11] = second compound 0.0316 µM, first compound 3.16 µM
[12] = second compound 0.0316 µM, first compound 10 µM
[13] = second compound 0.1 µM, first compound 0.0316 µM
[14] = second compound 0.1 µM, first compound 0.1 µM
[15] = second compound 0.1 µM, first compound 0.316 µM
[16] = second compound 0.1 µM, first compound 1 µM
[17] = second compound 0.1 µM, first compound 3.16 µM
[18] = second compound 0.1 µM, first compound 10 µM
[19] = second compound 0.316 µM, first compound 0.0316 µM
[20] = second compound 0.316 µM, first compound 0.1 µM
[21] = second compound 0.316 µM, first compound 0.316 µM
[22] = second compound 0.316 µM, first compound 1 µM
[23] = second compound 0.316 µM, first compound 3.16 µM
[24] = second compound 0.316 µM, first compound 10 µM
[25] = second compound 1 µM, first compound 0.0316 µM
[26] = second compound 1 µM, first compound 0.1 µM
[27] = second compound 1 µM, first compound 0.316 µM
[28] = second compound 1 µM, first compound 1 µM
[29] = second compound 1 µM, first compound 3.16 µM
[30] = second compound 1 µM, first compound 10 µM
[31] = second compound 3.16 µM, first compound 0.0316 µM
[32] = second compound 3.16 µM, first compound 0.1 µM
[33] = second compound 3.16 µM, first compound 0.316 µM
[34] = second compound 3.16 µM, first compound 1 µM
[35] = second compound 3.16 µM, first compound 3.16 µM
[36] = second compound 3.16 µM, first compound 10 µM
[37] = second compound 10 µM, first compound 0.0316 µM
[38] = second compound 10 µM, first compound 0.1 µM
[39] = second compound 10 µM, first compound 0.316 µM
[40] = second compound 10 µM, first compound 1 µM
[41] = second compound 10 µM, first compound 3.16 µM
[42] = second compound 10 µM, first compound 10 µM
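Also: spheroids exposed to the agents for seven days.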
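For viability, T/C in this document: 100% = DMSO vehicle control viability.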

IC50 [1]: > 10000 nM
IC50 [2]: > 10000 nM
IC50 [3]: 4910 nM
IC50 [4]: < 31.6 nM
IC50 [5]: < 31.6 nM
IC50 [6]: < 31.6 nM
SMILES: CC(CO)NC(=O)c1cc(-c2ccc(Cl)cc2)nn(-c2cnn(C)c2)c1=O (configuration not stated) + CNC(=O)c1ccc(Nc2nc(OC3CCCC3)c3c(-c4ccc5nc(C)oc5c4)c[nH]c3n2)c(OC)c1
viability, T/C [7]: 83.5%
viability, T/C [8]: 107%
viability, T/C [9]: 122%
viability, T/C [10]: 101%
viability, T/C [11]: 86.5%
viability, T/C [12]: 56.8%
viability, T/C [13]: 53.1%
viability, T/C [14]: 84.6%
viability, T/C [15]: 78.9%
viability, T/C [16]: 81.7%
viability, T/C [17]: 67.2%
viability, T/C [18]: 50.6%
viability, T/C [19]: 62.9%
viability, T/C [20]: 71.4%
viability, T/C [21]: 58.8%
viability, T/C [22]: 58.8%
viability, T/C [23]: 59.3%
viability, T/C [24]: 38.2%
viability, T/C [25]: 50.8%
viability, T/C [26]: 42.9%
viability, T/C [27]: 37.6%
viability, T/C [28]: 44.8%
viability, T/C [29]: 39.2%
viability, T/C [30]: 35.3%
viability, T/C [31]: 47.4%
viability, T/C [32]: 36.9%
viability, T/C [33]: 42.1%
viability, T/C [34]: 36.7%
viability, T/C [35]: 37.8%
viability, T/C [36]: 23.2%
viability, T/C [37]: 42.6%
viability, T/C [38]: 43.8%
viability, T/C [39]: 35.8%
viability, T/C [40]: 35.6%
viability, T/C [41]: 29.5%
viability, T/C [42]: 21.2%

SMILES: CC1COCCN1c1cc(C2(S(C)(=N)=O)CC2)nc(-c2ccnc3[nH]ccc23)n1 (configuration not stated) + CN1CCN(c2cc(C(=O)Nc3cc4cc(-c5cnn(C)c5)ccc4cn3)ccn2)CC1
IC50 [1]: 1200 nM
IC50 [2]: 1110 nM
IC50 [3]: < 31.6 nM
IC50 [4]: < 31.6 nM
IC50 [5]: < 31.6 nM
IC50 [6]: < 31.6 nM
viability, T/C [7]: 94.5%
viability, T/C [8]: 98.7%
viability, T/C [9]: 85%
viability, T/C [10]: 54%
viability, T/C [11]: 25.6%
viability, T/C [12]: 13%
viability, T/C [13]: 88.2%
viability, T/C [14]: 91.1%
viability, T/C [15]: 78.2%
viability, T/C [16]: 53.1%
viability, T/C [17]: 22.6%
viability, T/C [18]: 11.9%
viability, T/C [19]: 22.2%
viability, T/C [20]: 20.3%
viability, T/C [21]: 19.3%
viability, T/C [22]: 18.1%
viability, T/C [23]: 9.6%
viability, T/C [24]: 5.87%
viability, T/C [25]: 0.2%
viability, T/C [26]: 1.01%
viability, T/C [27]: 0.26%
viability, T/C [28]: 1.47%
viability, T/C [29]: 0.89%
viability, T/C [30]: 0.75%
viability, T/C [31]: 0.13%
viability, T/C [32]: 0.38%
viability, T/C [33]: 0.22%
viability, T/C [34]: 0.27%
viability, T/C [35]: 2.37%
viability, T/C [36]: 1.99%
viability, T/C [37]: 0.16%
viability, T/C [38]: 1.25%
viability, T/C [39]: 0.69%
viability, T/C [40]: 1.26%
viability, T/C [41]: 1.36%
viability, T/C [42]: 1.82%

IC50 (curve of compound): 1330 nM and 861 nM
SMILES: COC1C=CCC(C)C(C)S(=O)(=O)NC(=O)c2ccc3c(c2)N(CC2CCC21)CC1(CCCc2cc(Cl)ccc21)CO3 (configuration not stated)
viability, T/C (compound 0.0316 µM): 86.6% and 107%
viability, T/C (compound 0.1 µM): 85.4% and 73.3%
viability, T/C (compound 0.316 µM): 86.8% and 70.1%
viability, T/C (compound 1 µM): 61.2% and 61.9%
viability, T/C (compound 3.16 µM): 14.6% and 10.7%
viability, T/C (compound 10 µM): 1.35% and 1.31%

IC50 (compound alone, run of 08/14/2023): 212 nM [middle of 9 runs]
SMILES: CN1CCN(c2cc(C(=O)Nc3cc4cc(-c5cnn(C)c5)ccc4cn3)ccn2)CC1
viability, T/C (compound 0.0316 µM): 102% [middle of 12 runs]
viability, T/C (compound 0.1 µM): 97.7% [middle of 12 runs]
viability, T/C (compound 0.316 µM): 24.3% [middle of 12 runs]
viability, T/C (compound 1 µM): 1.19% [middle of 12 runs]
viability, T/C (compound 3.16 µM): 0.58% [middle of 11 runs]
viability, T/C (compound 10 µM): 0.34% [middle of 10 runs]

IC50 [1]: > 10000 nM
IC50 [2]: > 10000 nM
IC50 [3]: 5090 nM
IC50 [4]: < 31.6 nM
IC50 [5]: < 31.6 nM
IC50 [6]: < 31.6 nM
SMILES: C=CC(=O)N1CCN(c2nc(=O)n(-c3c(C)ccnc3C(C)C)c3nc(-c4c(O)cccc4F)c(F)cc23)C(C)C1 (configuration not stated) + CNC(=O)c1ccc(Nc2nc(OC3CCCC3)c3c(-c4ccc5nc(C)oc5c4)c[nH]c3n2)c(OC)c1
viability, T/C [7]: 83.4%
viability, T/C [8]: 105%
viability, T/C [9]: 91.4%
viability, T/C [10]: 106%
viability, T/C [11]: 129%
viability, T/C [12]: 82.7%
viability, T/C [13]: 47.1%
viability, T/C [14]: 67.9%
viability, T/C [15]: 71.1%
viability, T/C [16]: 58.5%
viability, T/C [17]: 70.6%
viability, T/C [18]: 36%
viability, T/C [19]: 61.1%
viability, T/C [20]: 71.6%
viability, T/C [21]: 72.3%
viability, T/C [22]: 71.2%
viability, T/C [23]: 65.6%
viability, T/C [24]: 27.2%
viability, T/C [25]: 51.9%
viability, T/C [26]: 51%
viability, T/C [27]: 36.9%
viability, T/C [28]: 52.3%
viability, T/C [29]: 49%
viability, T/C [30]: 14.8%
viability, T/C [31]: 35%
viability, T/C [32]: 40.4%
viability, T/C [33]: 33.4%
viability, T/C [34]: 44.2%
viability, T/C [35]: 40.1%
viability, T/C [36]: 23.4%
viability, T/C [37]: 41.6%
viability, T/C [38]: 30.6%
viability, T/C [39]: 37.4%
viability, T/C [40]: 36.3%
viability, T/C [41]: 30.9%
viability, T/C [42]: 12.4%

IC50 [1]: 825 nM
IC50 [2]: 429 nM
IC50 [3]: 429 nM
IC50 [4]: 394 nM
IC50 [5]: < 3.16 nM
IC50 [6]: < 3.16 nM
SMILES: CCN1CCN(Cc2ccc(Nc3ncc(F)c(-c4cc(F)c5nc(C)n(C(C)C)c5c4)n3)nc2)CC1 + CNC(=O)c1ccc(Nc2nc(OC3CCCC3)c3c(-c4ccc5nc(C)oc5c4)c[nH]c3n2)c(OC)c1
viability, T/C (second compound 0.0316 µM, first compound 0.00316 µM): 93%
viability, T/C (second compound 0.0316 µM, first compound 0.01 µM): 104%
viability, T/C [7]: 83.7%
viability, T/C [8]: 84.2%
viability, T/C [9]: 75.5%
viability, T/C [10]: 44.3%
viability, T/C (second compound 0.1 µM, first compound 0.00316 µM): 50.5%
viability, T/C (second compound 0.1 µM, first compound 0.01 µM): 72.3%
viability, T/C [13]: 68.2%
viability, T/C [14]: 57.9%
viability, T/C [15]: 52.9%
viability, T/C [16]: 38.6%
viability, T/C (second compound 0.316 µM, first compound 0.00316 µM): 85.4%
viability, T/C (second compound 0.316 µM, first compound 0.01 µM): 62%
viability, T/C [19]: 72.2%
viability, T/C [20]: 77.8%
viability, T/C [21]: 54%
viability, T/C [22]: 39%
viability, T/C (second compound 1 µM, first compound 0.00316 µM): 51.8%
viability, T/C (second compound 1 µM, first compound 0.01 µM): 56.5%
viability, T/C [25]: 51.3%
viability, T/C [26]: 60.2%
viability, T/C [27]: 61%
viability, T/C [28]: 24.2%
viability, T/C (second compound 3.16 µM, first compound 0.00316 µM): 61.6%
viability, T/C (second compound 3.16 µM, first compound 0.01 µM): 47.8%
viability, T/C [31]: 40.7%
viability, T/C [32]: 48%
viability, T/C [33]: 46.6%
viability, T/C [34]: 19.8%
viability, T/C (second compound 10 µM, first compound 0.00316 µM): 51.7%
viability, T/C (second compound 10 µM, first compound 0.01 µM): 38.5%
viability, T/C [37]: 43.8%
viability, T/C [38]: 51%
viability, T/C [39]: 41.9%
viability, T/C [40]: 21.7%
